Measured values from patent US9833497B2, “Human originated EGF domain proteins and use of the same” (CHENGDU SOURCEBIO LIMITED-LIABILITY COMPANY, priority 2013, dated 2017).

Key:
Format in all cases: cell-based
Proteus vulgaris = test: MIC against Gram-negative bacteria: Proteus vulgaris; settings: Proteus vulgaris; 96-well plate, 5×10^5 CFU/mL, 37° C., 10 h
In short: (§1)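 Read-out is absence of bacterial growth, with MIC set at the lowest recombinant protein concentration achieving it. Bacteria, pre-grown in LB to McFarland 0.5 and resuspended, were exposed at 5×10^5 CFU/mL to two-fold diluted human EGF domain proteins in triplicate at 37° C, 175 rpm.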

Citrobacter diversus = test: MIC against Gram-negative bacteria: Citrobacter diversus; settings: Citrobacter diversus; 96-well plate, 5×10^5 CFU/mL, 37° C., 10 h
In short: as §1

Moraxella catarrhalis = test: MIC against Gram-negative bacteria: Moraxella catarrhalis; settings: Moraxella catarrhalis; 96-well plate, 5×10^5 CFU/mL, 37° C., 10 h
In short: as §1

Enterobacter cloacae = test: MIC against Gram-negative bacteria: Enterobacter cloacae; settings: Enterobacter cloacae; 96-well plate, 5×10^5 CFU/mL, 37° C., 10 h
In short: as §1

Aeromonas hydrophila = test: MIC against Gram-negative bacteria: Aeromonas hydrophila; settings: Aeromonas hydrophila; 96-well plate, 5×10^5 CFU/mL, 37° C., 10 h
In short: as §1

Klebsiella pneumonia = test: MIC against Gram-negative bacteria: Klebsiella pneumonia; settings: Klebsiella pneumonia; 96-well plate, 5×10^5 CFU/mL, 37° C., 10 h
In short: as §1

Proteus mirabilis = test: MIC against Gram-negative bacteria: Proteus mirabilis; settings: Proteus mirabilis; 96-well plate, 5×10^5 CFU/mL, 37° C., 10 h
In short: as §1

Serratia marcescens = test: MIC against Gram-negative bacteria: Serratia marcescens; settings: Serratia marcescens; 96-well plate, 5×10^5 CFU/mL, 37° C., 10 h
In short: as §1

Pseudomonas aeruginosa = test: MIC against Gram-negative bacteria: Pseudomonas aeruginosa; settings: Pseudomonas aeruginosa; 96-well plate, 5×10^5 CFU/mL, 37° C., 10 h
In short: as §1

E. coli BL21 = test: MIC against Gram-negative bacteria: E. coli BL21; settings: E. coli BL21; 96-well plate, 5×10^5 CFU/mL, 37° C., 10 h
In short: as §1

E. coli DH5α = test: Antibacterial activity: MIC and growth curve against E. coli DH5α in 96-well plate; settings: minimal inhibitory concentration against E. coli DH5α; 96-well plate, 5×10^5 CFU/mL, 37° C., judged after 8 h
In short: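 Log-phase bacteria (OD600 ~0.5) resuspended in LB at 5×10^5 CFU/mL, exposed to recombinant protein at 50, 25, 12.5 μg/mL final in triplicate, 37 °C shaking at 175 rpm. OD600 read every 30 min; MIC is lowest concentration showing no growth.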

Substance | MIC (μg/mL) P. vulgaris (Proteus vulgaris) | MIC (μg/mL) C. diversus (Citrobacter diversus) | MIC (μg/mL) M. catarrhalis (Moraxella catarrhalis) | MIC (μg/mL) E. cloacae (Enterobacter cloacae) | MIC (μg/mL) A. hydrophila (Aeromonas hydrophila) | MIC (μg/mL) K. pneumonia (Klebsiella pneumonia) | MIC (μg/mL) P. mirabilis (Proteus mirabilis) | MIC (μg/mL) S. marcescens (Serratia marcescens) | MIC (μg/mL) P. aeruginosa (Pseudomonas aeruginosa) | MIC (μg/mL) E. coli BL21 (E. coli BL21) | MIC (E. coli DH5α)
PRT100 (DVNECTSGQNPCHSSTHCLNNVGSYQCRCRPGWQPIPGSPNGPNNTVCE; listed as Homo sapiens) | 25 µg/mL | 12.5 µg/mL | 12.5 µg/mL | 12.5 µg/mL | 12.5 µg/mL | 12.5 µg/mL | 12.5 µg/mL | 12.5 µg/mL | 12.5 µg/mL | 12.5 µg/mL | 12.5 µg/mL
PRT101 (DVDECSSGQHQCDSSTVCFNTVGSYSCRCRPGWKPRHGIPNNQKDTVCE; listed as Homo sapiens) | 12.5 µg/mL | 50 µg/mL | 50 µg/mL | 25 µg/mL | 50 µg/mL | 50 µg/mL | 12.5 µg/mL | 12.5 µg/mL | 25 µg/mL | 50 µg/mL | 25 µg/mL
PRT102 (DRCLPNYCEHGGECSQSWSTFHCNCTNTGYRGATC; listed as Homo sapiens) | 12.5 µg/mL | 25 µg/mL | 12.5 µg/mL | 12.5 µg/mL | 12.5 µg/mL | 12.5 µg/mL | 25 µg/mL | 25 µg/mL | 12.5 µg/mL | 12.5 µg/mL | 12.5 µg/mL
PRT103 (CSSYGKLCRNGGKCRERPIGFFCDCTFSAYTGPFC; listed as Homo sapiens) | 12.5 µg/mL | 12.5 µg/mL | 12.5 µg/mL | 12.5 µg/mL | 12.5 µg/mL | 12.5 µg/mL | 25 µg/mL | 25 µg/mL | 50 µg/mL | 12.5 µg/mL | 50 µg/mL
PRT106 (RSVCDLFPSYCHNGGQCYLVENIGAFCRCNTQDYIWHKGMRCE; listed as Homo sapiens) | 12.5 µg/mL | 25 µg/mL | 12.5 µg/mL | 25 µg/mL | 12.5 µg/mL | 50 µg/mL | 12.5 µg/mL | 12.5 µg/mL | 12.5 µg/mL | 50 µg/mL | 12.5 µg/mL
PRT107 (DRCLPSYCEHGGECSQSWDTFSCDCLGTGYTGETC; listed as Homo sapiens) | 50 µg/mL | 25 µg/mL | 12.5 µg/mL | 12.5 µg/mL | 50 µg/mL | 12.5 µg/mL | 25 µg/mL | 12.5 µg/mL | 12.5 µg/mL | 12.5 µg/mL | 12.5 µg/mL
PRT108 (VKDHCSKHSPCQKGGTCVNMPSGPHCLCPQHLTGNHCQ; listed as Homo sapiens) | 12.5 µg/mL | 25 µg/mL | 50 µg/mL | 25 µg/mL | 12.5 µg/mL | 50 µg/mL | 12.5 µg/mL | 12.5 µg/mL | 25 µg/mL | 12.5 µg/mL | 50 µg/mL
PRT109 (ASQACRTNPCLHGGRCLEVEGHRLCHCPVGYTGAFCD; listed as Homo sapiens) | 25 µg/mL | 12.5 µg/mL | 25 µg/mL | 12.5 µg/mL | 12.5 µg/mL | 12.5 µg/mL | 12.5 µg/mL | 50 µg/mL | 12.5 µg/mL | 12.5 µg/mL | 12.5 µg/mL
PRT110 (DIDECASSNGTLCAHICINTLGSYRCECREGYIREDDGKTCT; listed as Homo sapiens) | 12.5 µg/mL | 12.5 µg/mL | 50 µg/mL | 12.5 µg/mL | 50 µg/mL | 50 µg/mL | 12.5 µg/mL | 12.5 µg/mL | 25 µg/mL | 12.5 µg/mL | 25 µg/mL
PRT111 (DLDECASRSKSGEEDPQPQCQHLCHNYVGGYFCSCRPGYELQEDTHSCQ; listed as Homo sapiens) | 25 µg/mL | 12.5 µg/mL | 25 µg/mL | 50 µg/mL | 25 µg/mL | 12.5 µg/mL | 50 µg/mL | 12.5 µg/mL | 12.5 µg/mL | 12.5 µg/mL | 12.5 µg/mL
PRT112 (DINECTDFVDVPCSHFCNNFIGGYFCSCPPEYFLHDDMKNCG; listed as Homo sapiens) | 12.5 µg/mL | 12.5 µg/mL | 12.5 µg/mL | 12.5 µg/mL | 12.5 µg/mL | 12.5 µg/mL | 50 µg/mL | 50 µg/mL | 50 µg/mL | 12.5 µg/mL | 50 µg/mL
PRT113 (DLDECASRSKSGEEDPQPQCQHLCHNYVGGYFCSCRPGYELQEDRHSCQ; listed as Homo sapiens) | 12.5 µg/mL | 12.5 µg/mL | 50 µg/mL | 25 µg/mL | 50 µg/mL | 12.5 µg/mL | 12.5 µg/mL | 100 µg/mL | 25 µg/mL | 50 µg/mL | 12.5 µg/mL
PRT114 (PKYGCNFNNGGCHQDCFEGGDGSFLCGCRPGFRLLDDLVTCA; listed as Homo sapiens) | 12.5 µg/mL | 12.5 µg/mL | 12.5 µg/mL | 12.5 µg/mL | 25 µg/mL | 25 µg/mL | 12.5 µg/mL | 12.5 µg/mL | 12.5 µg/mL | 12.5 µg/mL | 12.5 µg/mL
PRT115 (SRNPCSSSPCRGGATCVLGPHGKNYTCRCPQGYQLDSSQLDCV; listed as Homo sapiens) | 12.5 µg/mL | 25 µg/mL | 50 µg/mL | 25 µg/mL | 12.5 µg/mL | 50 µg/mL | 12.5 µg/mL | 12.5 µg/mL | 12.5 µg/mL | 50 µg/mL | 12.5 µg/mL
PRT117 (DVDECALGRSPCAQGCTNTDGSFHCSCEEGYVLAGEDGTQCQ; listed as Homo sapiens) | 12.5 µg/mL | 25 µg/mL | 12.5 µg/mL | 25 µg/mL | 12.5 µg/mL | 12.5 µg/mL | 25 µg/mL | 12.5 µg/mL | 25 µg/mL | 12.5 µg/mL | 12.5 µg/mL
